The values that follow are results of earlier work, collected in article PMC8229129, “Local Colonic Administration of a Serine Protease Inhibitor Improves Post-Inflammatory Visceral Hypersensitivity in Rats” (Pharmaceutics, 2021).

SMILES strings stand for the structures.

Parameters in all cases: method as in PMID 29911328
For one data set, the system named is cathepsin G. As to conditions: in vitro; cited from earlier work.
Data set [1] has as its system visceral hypersensitivity in post-colitis rats. As to conditions: TNBS-induced post-inflammatory rats, intraperitoneally; cited from earlier work.
The subject of the next data set is inflammatory parameters. As to conditions: post-inflammatory model, intraperitoneal treatment; cited from earlier work.

With `CC(=O)Nc1ccc(OP(=O)(Oc2ccc(NC(C)=O)cc2)C(Cc2ccc(N=C(N)N)cc2)NC(=O)OCc2ccccc2)cc1.Cl` (stereo not drawn) [UAMC-00050], the “inhibition of cathepsin G” value in the data set on cathepsin G is “efficiently inhibits”. Besides, in data set [1], the “Dose required to obtain complete reversal of visceral hypersensitivity” value was 1.0 mg/kg. For the same molecule, the “Effects on inflammatory parameters” value with inflammatory parameters was “no effects”.
